ChEMBL document CHEMBL4616725, “Global PROTAC Toolbox for Degrading BCR-ABL Overcomes Drug-Resistant Mutants and Adverse Effects” (J Med Chem, 2020)
Active and inactive are the calls of the source. No cut-off for these calls is given here.

Key:
[1] = target: T1, Proto-oncogene tyrosine-protein kinase Src (Homo sapiens, UniProt P12931); test: Safety index, ratio of compound IC50 to ponatinib IC50 for inhibition of human c-SRC using poly(Glu,Tyr)4:1 substrate and [gamma-33P]-ATP incubated for 40 mins by scintillation counting method
[2] = system: H9c2; test: Antiproliferative activity against rat H9C2 cells incubated for 3 days by CCK8 assay; assay type: cell-based; details: H9c2, 72 h
[3] = target: Protein cereblon/Receptor-type tyrosine-protein kinase FLT3 (Homo sapiens, UniProt P36888+Q96SW2); test: Protac activity at Cereblon/Flt3 in human K562 cells assessed as reduction in Flt3 protein levels at 3 to 30000 nM incubated for 48 hrs by Western blot analysis; assay type: ADME, cell-based
[4] = system: Protein cereblon/Tyrosine-protein kinase ABL1/Breakpoint cluster region protein (Homo sapiens), P00519+P11274+Q96SW2 [T315I]; test: Protac activity at Cereblon/BCR/ABL T315I mutant (unknown origin) expressed in mouse BaF3 cells assessed as reduction in BCR-ABL T315I mutant protein levels at 3 to 30000 nM incubated for 32 hrs by Western blot analysis; assay type: cell-based
[5] = target: Tyrosine-protein kinase Lyn (Homo sapiens, UniProt P07948); test: Inhibition of human LYN using poly(Glu,Tyr)4:1 substrate and [gamma-33P]-ATP incubated for 40 mins by scintillation counting method
[6] = target: T1, Proto-oncogene tyrosine-protein kinase Src; test: Inhibition of human c-SRC using poly(Glu,Tyr)4:1 substrate and [gamma-33P]-ATP incubated for 40 mins by scintillation counting method
[7] = system: HUVEC; test: Toxicity in HUVEC assessed as inhibition of tube formation at 1 uM incubated for 20 hrs by optical microscopy based matrigel-based assay; assay type: cell-based; details: human
[8] = target: Protein cereblon/Proto-oncogene tyrosine-protein kinase Src (Homo sapiens, UniProt P12931+Q96SW2); test: Protac activity at Cereblon/Src in human K562 cells assessed as reduction in Src protein levels at 3 to 30000 nM incubated for 48 hrs by Western blot analysis; assay type: ADME, cell-based; details: k562, 48 h, 30 µM
[9] = target: T2, Protein cereblon/Tyrosine-protein kinase ABL1/Breakpoint cluster region protein (Homo sapiens, UniProt P00519+P11274+Q96SW2); test: Protac activity at Cereblon/BCR/ABL in human K562 cells assessed as induction of BCR-ABL degradation incubated for 32 to 48 hrs by Western blot analysis; assay type: cell-based
[10] = target: T3, Tyrosine-protein kinase ABL1 (Homo sapiens, UniProt P00519, T315I); test: Inhibition of human ABL T315I mutant using EAIYAAPFAKKK substrate and [gamma-33P]-ATP incubated for 40 mins by scintillation counting method
[11] = target: Protein cereblon/Mast/stem cell growth factor receptor Kit (Homo sapiens, UniProt P10721+Q96SW2); test: Protac activity at Cereblon/C-Kit in human K562 cells assessed as reduction in C-Kit protein levels at 3 to 30000 nM incubated for 48 hrs by Western blot analysis; assay type: ADME, cell-based; details: k562, 48 h, 30 µM
[12] = target: T3, Tyrosine-protein kinase ABL1; test: Safety index, ratio of compound IC50 to ponatinib IC50 for inhibition of human ABL T315I mutant using EAIYAAPFAKKK substrate and [gamma-33P]-ATP incubated for 40 mins by scintillation counting method
[13] = system: Protein cereblon/Tyrosine-protein kinase ABL1/Breakpoint cluster region protein (Homo sapiens), P00519+P11274+Q96SW2 [V468F]; test: Protac activity at Cereblon/BCR/ABL V468F mutant (unknown origin) expressed in human HeLa cells assessed as reduction in BCR-ABL V468F mutant protein levels at 10 to 10000 nM incubated for 32 hrs by Western blot analysis; assay type: cell-based
[14] = target: T2, Protein cereblon/Tyrosine-protein kinase ABL1/Breakpoint cluster region protein; test: Protac activity at Cereblon/BCR/ABL in human K562 cells assessed as synergistic antiproliferation effect by measuring combination index at 0.25 to 4 times alone antiproliferative EC50 ibn presence of hedgehog pathway inhibitor […] by Chou-Talalay method; assay type: cell-based
[15] = system: Protein cereblon/Tyrosine-protein kinase ABL1/Breakpoint cluster region protein (Homo sapiens), P00519+P11274+Q96SW2 [E255K]; test: Protac activity at Cereblon/BCR/ABL E255K mutant (unknown origin) expressed in human HeLa cells assessed as reduction in BCR-ABL E255K mutant protein levels at 10 to 10000 nM incubated for 32 hrs by Western blot analysis; assay type: cell-based
[16] = system: HUVEC; test: Antiproliferative activity against human HUVEC incubated for 3 days by CCK8 assay; assay type: cell-based; details: 72 h
[17] = system: K562; test: Antiproliferative activity against human K562 cells incubated for 3 days by CCK8 assay; assay type: functional, cell-based; details: K562, 72 h
[18] = system: BaF3; test: Antiproliferative activity against wild type mouse BA/F3 cells incubated for 3 days by CCK8 assay; assay type: cell-based; details: BaF3, 72 h
[19] = target: Vascular endothelial growth factor receptor 2 (Homo sapiens, UniProt P35968); test: Inhibition of human VEGFR2 using MBP substrate and [gamma-33P]-ATP incubated for 40 mins by scintillation counting method
[20] = system: Protein cereblon/Tyrosine-protein kinase ABL1/Breakpoint cluster region protein (Homo sapiens), P00519+P11274+Q96SW2 [H396R]; test: Protac activity at Cereblon/BCR/ABL H396R mutant (unknown origin) expressed in human HeLa cells assessed as reduction in BCR-ABL H396R mutant protein levels at 10 to 10000 nM incubated for 32 hrs by Western blot analysis; assay type: cell-based
[21] = target: Protein cereblon/Tyrosine-protein kinase ABL1/Breakpoint cluster region protein (Homo sapiens, UniProt P00519+P11274+Q96SW2, T315I); assay type: cell-based, BaF3
[22] = target: Protein cereblon/Platelet-derived growth factor receptor alpha (Homo sapiens, UniProt P16234+Q96SW2); test: Protac activity at Cereblon/PDGFRalpha in human K562 cells assessed as reduction in PDGFRalpha protein levels at 3 to 30000 nM incubated for 48 hrs by Western blot analysis; assay type: ADME, cell-based; details: k562, 48 h, 30 µM

T1 sequence (P12931 2-536 limits assumed): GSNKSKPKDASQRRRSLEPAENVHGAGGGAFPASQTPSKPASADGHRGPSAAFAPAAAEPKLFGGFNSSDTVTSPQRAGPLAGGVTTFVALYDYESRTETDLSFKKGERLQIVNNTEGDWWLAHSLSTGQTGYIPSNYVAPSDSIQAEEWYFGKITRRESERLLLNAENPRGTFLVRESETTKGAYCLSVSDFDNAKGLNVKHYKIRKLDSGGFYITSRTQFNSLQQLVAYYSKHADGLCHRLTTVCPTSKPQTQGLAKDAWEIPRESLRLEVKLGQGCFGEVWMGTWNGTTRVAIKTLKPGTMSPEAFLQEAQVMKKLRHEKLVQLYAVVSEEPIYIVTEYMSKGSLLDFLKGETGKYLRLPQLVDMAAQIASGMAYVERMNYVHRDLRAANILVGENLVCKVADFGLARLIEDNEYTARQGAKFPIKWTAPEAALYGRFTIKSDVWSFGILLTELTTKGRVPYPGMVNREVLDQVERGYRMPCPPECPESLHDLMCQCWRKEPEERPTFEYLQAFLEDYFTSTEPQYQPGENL
Chain of Vascular endothelial growth factor receptor 2 (P35968 whole entry): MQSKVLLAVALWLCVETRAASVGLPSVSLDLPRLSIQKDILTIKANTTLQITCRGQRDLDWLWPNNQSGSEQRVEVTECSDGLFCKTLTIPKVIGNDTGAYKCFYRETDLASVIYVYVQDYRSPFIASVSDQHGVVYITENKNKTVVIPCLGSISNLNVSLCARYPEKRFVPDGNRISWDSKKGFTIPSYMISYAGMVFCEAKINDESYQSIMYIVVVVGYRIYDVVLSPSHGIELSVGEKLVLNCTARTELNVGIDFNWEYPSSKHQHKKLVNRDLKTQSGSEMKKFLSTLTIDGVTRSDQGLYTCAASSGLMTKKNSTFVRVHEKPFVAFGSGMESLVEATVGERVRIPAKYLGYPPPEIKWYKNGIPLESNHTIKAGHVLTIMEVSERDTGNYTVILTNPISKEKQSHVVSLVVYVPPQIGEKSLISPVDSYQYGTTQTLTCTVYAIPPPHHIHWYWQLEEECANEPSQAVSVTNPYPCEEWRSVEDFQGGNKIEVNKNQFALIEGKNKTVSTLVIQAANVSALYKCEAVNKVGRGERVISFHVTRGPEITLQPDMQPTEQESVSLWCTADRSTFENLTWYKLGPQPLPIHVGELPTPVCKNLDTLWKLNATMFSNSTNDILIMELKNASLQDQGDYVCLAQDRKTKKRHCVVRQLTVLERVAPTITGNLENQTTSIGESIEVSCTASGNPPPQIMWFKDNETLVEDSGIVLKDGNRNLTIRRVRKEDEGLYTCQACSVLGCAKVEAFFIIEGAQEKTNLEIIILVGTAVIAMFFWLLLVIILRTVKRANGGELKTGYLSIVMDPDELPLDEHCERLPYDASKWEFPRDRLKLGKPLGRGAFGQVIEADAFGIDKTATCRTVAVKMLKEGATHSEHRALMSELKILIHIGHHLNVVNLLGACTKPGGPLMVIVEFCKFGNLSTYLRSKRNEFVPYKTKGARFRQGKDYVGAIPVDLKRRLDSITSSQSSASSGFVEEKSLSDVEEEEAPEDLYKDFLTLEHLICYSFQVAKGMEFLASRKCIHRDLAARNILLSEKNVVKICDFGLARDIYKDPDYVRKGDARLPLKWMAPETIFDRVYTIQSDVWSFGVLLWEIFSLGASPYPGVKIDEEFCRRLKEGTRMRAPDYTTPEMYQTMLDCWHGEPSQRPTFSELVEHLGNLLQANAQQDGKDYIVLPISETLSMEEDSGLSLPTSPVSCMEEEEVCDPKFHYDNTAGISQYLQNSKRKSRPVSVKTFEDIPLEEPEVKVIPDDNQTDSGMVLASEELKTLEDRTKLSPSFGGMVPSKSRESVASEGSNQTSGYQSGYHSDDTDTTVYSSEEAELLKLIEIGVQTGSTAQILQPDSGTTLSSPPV
Chain of Protein cereblon/Receptor-type tyrosine-protein kinase FLT3 (P36888 whole entry): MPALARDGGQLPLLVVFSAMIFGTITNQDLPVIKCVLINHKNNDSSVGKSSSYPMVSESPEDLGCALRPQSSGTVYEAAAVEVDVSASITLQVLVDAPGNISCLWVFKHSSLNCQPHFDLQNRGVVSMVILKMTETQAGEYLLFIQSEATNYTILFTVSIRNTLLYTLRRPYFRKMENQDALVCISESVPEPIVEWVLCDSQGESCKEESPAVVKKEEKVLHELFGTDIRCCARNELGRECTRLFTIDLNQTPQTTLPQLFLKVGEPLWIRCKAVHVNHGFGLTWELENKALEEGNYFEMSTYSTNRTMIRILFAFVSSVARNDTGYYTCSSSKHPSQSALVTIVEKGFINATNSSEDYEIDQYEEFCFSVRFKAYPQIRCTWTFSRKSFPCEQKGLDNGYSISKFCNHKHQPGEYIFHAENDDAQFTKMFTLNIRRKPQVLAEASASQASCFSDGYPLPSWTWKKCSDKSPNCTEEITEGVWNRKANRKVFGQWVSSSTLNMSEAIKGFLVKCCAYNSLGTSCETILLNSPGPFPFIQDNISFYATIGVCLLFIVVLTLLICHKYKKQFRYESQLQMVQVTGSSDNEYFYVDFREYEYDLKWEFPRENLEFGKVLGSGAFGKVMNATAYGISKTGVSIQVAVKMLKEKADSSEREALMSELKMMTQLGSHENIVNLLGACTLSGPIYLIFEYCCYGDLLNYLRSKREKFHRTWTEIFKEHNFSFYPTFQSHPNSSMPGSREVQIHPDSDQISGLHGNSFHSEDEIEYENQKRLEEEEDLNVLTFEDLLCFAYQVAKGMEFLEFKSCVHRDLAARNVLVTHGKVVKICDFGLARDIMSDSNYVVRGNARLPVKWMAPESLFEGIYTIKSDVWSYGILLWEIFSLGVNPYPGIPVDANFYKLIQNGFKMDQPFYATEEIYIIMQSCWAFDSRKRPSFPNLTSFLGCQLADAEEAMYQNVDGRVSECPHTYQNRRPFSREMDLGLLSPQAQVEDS
Chain of Protein cereblon/Receptor-type tyrosine-protein kinase FLT3 (Q96SW2 whole entry): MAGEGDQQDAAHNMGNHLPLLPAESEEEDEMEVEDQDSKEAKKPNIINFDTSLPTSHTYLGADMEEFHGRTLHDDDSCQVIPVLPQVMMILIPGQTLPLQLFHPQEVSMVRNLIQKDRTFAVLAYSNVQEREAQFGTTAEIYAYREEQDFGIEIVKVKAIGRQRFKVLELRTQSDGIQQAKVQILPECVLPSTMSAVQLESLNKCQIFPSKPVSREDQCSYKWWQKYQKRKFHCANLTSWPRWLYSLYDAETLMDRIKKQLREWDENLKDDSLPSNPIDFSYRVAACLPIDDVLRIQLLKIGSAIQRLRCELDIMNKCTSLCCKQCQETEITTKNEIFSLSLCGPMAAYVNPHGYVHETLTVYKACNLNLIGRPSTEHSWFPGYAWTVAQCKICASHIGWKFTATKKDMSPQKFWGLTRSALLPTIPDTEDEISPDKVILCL
Chain of Tyrosine-protein kinase Lyn (P07948 whole entry): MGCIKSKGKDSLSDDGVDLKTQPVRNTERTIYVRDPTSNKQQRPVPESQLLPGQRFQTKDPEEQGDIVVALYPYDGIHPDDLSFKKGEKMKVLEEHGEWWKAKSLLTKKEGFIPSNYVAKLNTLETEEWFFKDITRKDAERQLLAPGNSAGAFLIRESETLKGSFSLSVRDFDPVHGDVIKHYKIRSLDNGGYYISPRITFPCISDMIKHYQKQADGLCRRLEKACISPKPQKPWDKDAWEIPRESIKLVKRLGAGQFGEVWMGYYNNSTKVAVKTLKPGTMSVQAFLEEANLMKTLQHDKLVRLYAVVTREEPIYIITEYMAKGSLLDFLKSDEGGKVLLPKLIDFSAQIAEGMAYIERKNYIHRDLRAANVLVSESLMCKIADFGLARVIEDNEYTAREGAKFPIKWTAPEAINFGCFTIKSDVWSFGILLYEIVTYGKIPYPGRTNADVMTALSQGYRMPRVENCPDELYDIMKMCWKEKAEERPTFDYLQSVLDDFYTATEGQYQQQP
Chain of Protein cereblon/Proto-oncogene tyrosine-protein kinase Src (P12931 2-536 limits assumed): as the sequence (P12931 2-536 limits assumed) above
Chain of Protein cereblon/Proto-oncogene tyrosine-protein kinase Src (Q96SW2 whole entry): as the sequence (Q96SW2 whole entry) above

In the case of Cc1ccc(C(=O)Nc2ccc(CN3CCN(C(=O)CCCc4cn(CCOCCOCCOCCNc5cccc6c5C(=O)N(C5CCC(=O)NC5=O)C6=O)nn4)CC3)c(C(F)(F)F)c2)cc1C#Cc1cnc2cccnn12 (configuration not stated), the “Ratio IC50” value [1] is reported as 257, the EC50 [2] is reported as > 10000 nM and the IC50 [3] is reported as > 300 nM. For the same molecule, the Activity [4] was “Active”, the IC50 [5] was 44.2 nM and the IC50 [6] was 2580 nM. For the same molecule, the Activity [7] was “Non-Toxic”, the Activity [8] was “Not Active” and the DC50 [9] was 20 nM. For the same molecule, the IC50 [10] was 13.1 nM, the Activity [11] was “Not Active” and the “Ratio IC50” value [12] was 13. For the same molecule, the Activity [13] was “Active”, the CI [14] was < 1 and the Activity [15] was “Active”. For the same molecule, the EC50 [16] was > 10000 nM, the IC50 [17] was 7.5 nM and the EC50 [18] was > 10000 nM. The IC50 [19] was 441 nM, the Activity [20] was “Active” and the EC50 [21] was 28.5 nM. The Activity [22] was “Not Active”.
